Several values for one entry are separate records, joined by “and”; a condition that tells them apart may be missing. Equal entries are not always repeated.
Tests used:
Assay type in all cases: in vivo
Cockroaches = assay: Cockroach toxicity by forced exposure on treated filter paper; details: forced exposure 24 hours
Description: Additionally, toxicity was determined by forced exposure testing under the following protocol. Filter paper circles were treated with test compound. Cockroaches were released onto the treated circles and covered with inverted plastic cylinders placed over the paper discs. The cockroaches were left on the substrates for 24 hours and checked for mortality.

stable flies = assay: Human forearm test against stable flies, time to first confirmed bite; details: average of two trials, maximum 8 hours
Description: Two insect repellents per day were tested by applying one on each arm of a human subject and inserting the arms into a cage containing 50 stable flies. The exposure period was five minutes at every 30 minute interval until the first time a confirmed bite was […] The stable flies were reared at ambient temperature, relative humidity and photoperiod. Groups of 50 flies were aspirated from the cage and released into 16 oz. cups with screened lids, which were used to release flies into the two test cages. […] Adjacent areas above and below the treated area were protected with elastic bandages held in place with Elastikon® surgical tape.
The application rate was between 0.65 ml and 1 ml/250 cm^2 for all repellents. The actual amount of repellent used was based upon the amount that provides thorough coverage of the 250 cm^2 treatment area. A repellent was applied using either a micropipette or a syringe minus the needle. The repellents were then evenly spread on the treatment area with a gloved finger. Each test subject's forearms were allowed to air dry for approximately 30 minutes prior to the first exposure. The study coordinator or technician assisted the test subjects in inserting their arms into the test cages, taking care not to rub them on the cloth sleeve. Both treated arms were inserted into a cage; there were two subjects (4 arms) per cage. The test subjects exposed their treated forearms to the flies in the test cages for 5 minutes. The subjects then removed their arms from the cages with assistance from the study coordinator or a technician. Exposures of each arm were repeated every 30 minutes until the repellent on that arm was determined to be no longer effective (‘breakdown’) or until 8 hours have elapsed, whichever occurs first.
Breakdown occurs when the first confirmed bite is noted. A confirmed bite occurs when a bite is followed by a second bite in the same exposure period or in the next succeeding exposure period. The second bite becomes the confirming bite and the breakdown time is taken as the time of the first bite. When a confirmed bite occurs, testing is discontinued on that arm. Results in Table 3 below are the average of two trials on two different test subjects. Compounds were diluted in isopropyl alcohol.

[1] = tested on: brown marmorated stink bugs (BMSB); assay: Brown marmorated stink bug repellency, treated vs. untreated filter paper arena
Description: The two semi-circle filter papers were aligned together to completely cover the bottom of the test arena. Control arenas were also set up in a similar fashion except both were treated with acetone. Five replicates of 5 BMSB were then introduced into both the treated and control arenas. By releasing them in the center of the arena, the BMSB were presented with a choice of treated vs. untreated substrate (or untreated vs. untreated in the control arenas). The repellency of the BMSB was recorded at 24 hours post-treatment.

house flies = assay: House fly repellency on treated filter paper food trays in cages; details: over 6 hours
Description: The bottom of each cage was lined with brown craft paper and divided into 4 equal quadrants. Each quadrant housed a makeshift filter paper food tray. Two of the four filter papers were treated with repellent and two treated with isopropanol. Control cages contained filter papers that were treated with 4 filter papers of isopropanol only. The number of flies resting on filter paper per quadrant was recorded every 30 minutes for a total of 6 hours. Cages were rotated to eliminate positional bias. […] Each of the test samples were diluted in isopropyl alcohol.

[2] = tested on: Brown Dog Ticks, Rhipicephalus sanguineus; assay: Brown Dog tick repellency on vertical filter paper strips; details: 7.5% in isopropyl alcohol
Description: Control against Brown Dog ticks was determined in the following protocol. Strips of filter paper, 1″ by 3″, were placed on a sheet of aluminum foil treated with 1 ml each of the test samples and allowed to dry. The end of each treated strip was stapled to an untreated filter paper strip of the same dimensions. The stapled strips were suspended in a vertical position above a tray, with the treated half attached to a horizontal glass rod by a metal clip. The untreated half was lowered when the strip is vertically positioned. Brown Dog Ticks, Rhipicephalus sanguineus, mixed sexes, were purchased from a supplier. Five replicates of five ticks for each treatment regimen plus five additional replicates for the control were employed. Ticks shipped to the test site were given at least one day to acclimate to “shipping stress” before they are used for testing. Those tick specimens which appeared sluggish or moribund were not used. Suitable ticks were removed from their containers and allowed to quest on the free end of the test strip. Once present on the strip they were watched as they crawled up the strip until they contacted the treated paper. If the tick, once in contact with the treated zone, either turned around, stopped without proceeding further, or dropped off, the tick is classified as repelled. If it continued to crawl onto the treated strip, even after it stopped briefly, that tick was classified as not repelled. A maximum observation time of 1 minute per replicate was allowed for ticks to respond after reaching the treated area, but during the test, if more time was needed, the maximum observation time may have been adjusted at the discretion of the study coordinator. At the end of the observation time, the number of ticks repelled was recorded. Tick behavior was recorded when applicable, such as whether increased number of affected or repelled ticks occurred in successive replicates over time. After the completion of each treatment parameter, the testing chamber was ventilated for five minutes by turning on the exhaust fan and opening the door leading into the chamber. Ticks were used only once. Average number of ticks displaying each behavior category were calculated and compared to the control replicates.

Brown Dog Ticks = assay: Second repellent assay against Brown Dog Ticks; details: 15% in isopropyl alcohol
Description: Also, a second repellent assay was used to evaluate six test samples against Brown Dog Ticks. Five replicates of five ticks were given the opportunity to quest onto a vertical strip of untreated filter paper and then allowed to move upward toward a second vertical strip of filter paper treated with one of the six candidate repellents or DEET®. In the control situation, the second strip was treated with isopropanol. They were then observed for directional or behavioral changes caused in response to contact with the repellent. Ticks were recorded as either repelled or not repelled. Compounds were diluted in isopropyl alcohol. The percentages of ticks repelled are shown below in Table 6.

German cockroaches = assay: German cockroach repellency, choice of food stations in arena; details: 50% in acetone; at 4 hours
Description: The efficacy of compounds of this invention to control or repel German cockroaches was illustrated using the following protocol. One food pellet each was placed on a paper square (station) treated with one of the repellent materials. Materials were diluted to 50% in acetone and a straight acetone station was also used. Both stations were placed on the same side of the arena. Cockroaches were starved for 2 days and then released into the arena. They were given a choice to feed on either food pellet. A control arena with an acetone treated station and an untreated station was also used. The distribution of cockroaches within the arena was recorded at 30 minute intervals over 4 hours. Repellency at 4 hours was calculated by the number of cockroaches on the untreated station vs. the total number of cockroaches on the stations.

Black Widow spiders = assay: Black Widow spider choice test in half-treated tube shelters; details: 5% in isopropanol; location after 24 hours
Description: Control against Black Widow spiders was determined using the following protocol. One test container containing two card stock tube shelters, one half treated with a test sample and the other half treated with isopropanol was prepared. A spider was introduced in the center of the tube. The spider was then given a choice to move to one end of the shelters. The following day, its location is recorded and compared to the results from a shelter containing untreated half-shelters.
On the day of the test one of the two shelters was sprayed with the test sample solution using a 2 oz pump spray bottle. Only the surfaces that the spider will most likely contact were treated. Therefore, only the inside of one of the shelter tubes, including the end disc (spiders will not be able to access the outside part of the shelter) were sprayed. The total amount of product was weighed and recorded. The treated surface was allowed to dry for a minimum of ½ hour, or until solvent could not be detected by smell. At this time the shelter tubes were assembled.
Card stock paper tube shelters were constructed from 2 half-letter sized sheets (5½″×8½″) of paper, rolled and taped together to form a short tube. One end of each was covered with a circle of card stock paper, while the other end was later taped to the open end of the other half sheet, forming one long tube. […] The solvent-treated half was labeled with a “C” on the inner and outer walls with a pencil or a pen with solvent resistant ink. Prior to forming the final tube shelter, a semi-circular hole was cut into one of the margins of each sheet such that, once the two tubes are taped together, the holes correspond to the top and at the junction of the tubes for introduction of the spiders.
Twenty-five arenas were prepared in this manner for each test sample. There were five replicates of five spiders. Twenty-five additional control arenas were also prepared. They were prepared the same way, except that areas to be sprayed were sprayed with isopropanol only.
Replicates of five spiders were selected for each test formulation and for the control. The specimens were visually examined for overall physical condition. […] The spiders were transferred directly into the holding vials using flexible forceps or with a little coaxing with an artist brush. Because of their cannibalistic tendencies, each vial contained only one spider. There they were held until the time for testing.
At the test start the spiders were placed directly in the middle, through the opening at the top of the shelter tube, and the opening covered, with only one spider per arena. […] They were left alone for 24 hours, after which time their location within the arena was recorded. Spiders present inside the shelter treated with the test repellent were considered tolerant.

[3] = 30% in isopropyl alcohol on forearm

SMILES	100% bite protection for (stable flies; [3])	% Repellency at 24 hours ([1]; 2.5% in isopropyl alcohol)	Overall % Repellency (house flies; 7.5% in isopropyl alcohol)	% Repellency 4 hr (German cockroaches)	also measured
CCCCCCCC1CC(=O)C=C(C)C1 (stereo not shown) [3-Methyl-5-heptyl-2-cyclohexenone, 3-methyl-5-heptyl-2-cyclohexenone]					Mortality @ 24 hours (Cockroaches; 2.5% in acetone): 10%
CCCCCC1CC(=O)C=C(C)C1 (stereo not shown) [3-Methyl-5-pentyl-2-cyclohexenone, 3-methyl-5-pentyl-2-cyclohexenone]					Mortality @ 24 hours (Cockroaches; 2.5% in acetone): 96%
CC1CCC(C(C)(C)O)C(O)C1 (stereo not shown) [PMD, p-Menthane-3,8-diol, reference compound]	6.5 h	80%			100% bite protection for (stable flies; 15% in isopropyl alcohol on forearm): 4.25 h
CCCCCC1C(=O)CCC1CC(=O)OCCC (stereo not shown) [Propyl dihydrojasmonate, propyl dihydrojasmonate]	4 h	80%	23%	87.5%	Overall % Repellency (house flies; 5% in isopropyl alcohol): 52%; Mean % repelled [2]: 96%; Mean % repelled (Brown Dog Ticks): 100%; % Repellency (Black Widow spiders): 62.5%; % Repellency at 24 hours ([1]; 5% in isopropyl alcohol): 100%
CCCCCCCCCCCCCC1CCC(=O)O1 (stereo not shown) [gamma-Heptadecalactone]			39%	100%	Mortality @ 24 hours (Cockroaches; neat): 22%
CCCCCCCCCC1(C)CCC(=O)O1 (stereo not shown) [gamma-Methyl tridecalactone, gamma methyl tridecalactone]	1.75 h	80%			
CCCCCCCCCCC1CCC(=O)O1 (stereo not shown) [gamma-Tetradecalactone, gamma-tetradecalactone]		82%	80%	82.4% and 75%	Mean % repelled (Brown Dog Ticks): 92%; Mortality @ 24 hours (Cockroaches; neat): 46%; % Repellency at 24 hours ([1]; 5% in isopropyl alcohol): 91%
